Tested on: 817829-284-R-J1-PDC multi-cell spheroid viability
Experiment: Anticancer human tumor 817829-284-R-J1-PDC patient-derived colon adenocarcinoma cell line growth inhibition [PI3K]
Settings: for IC50: curve of first compound; for viability, T/C: stronger effect = lower value
Method in brief: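 We assembled tumor spheroids that included a stromal compartment of HUVEC and MSCs, then exposed them to targeted agents alone and together with PI3K pathway inhibitors. Concentration series descended by half-log from clinically achievable Cmax levels. Viability served as the endpoint.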
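Also: spheroids exposed to agents for seven days before readout.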
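For viability, T/C in this document: percent of vehicle DMSO control viability which is 100%.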

Q: What does the source list for `CC(=O)c1c(C)c2cnc(Nc3ccc(N4CCNCC4)cn3)nc2n(C2CCCC2)c1=O` + CC(Nc1ccc2c(c1)OCCn1cc(N3C(=O)OCC3C(F)F)nc1-2)C(N)=O?
A: IC50 (second compound 0.00316 µM): 69.7 nM; IC50 (second compound 0.01 µM): 76.1 nM; IC50 (second compound 0.0316 µM): 33.9 nM; IC50 (second compound 0.1 µM): 28.7 nM; IC50 (second compound 0.316 µM): 13.7 nM; IC50 (second compound 1 µM): 8.65 nM; viability, T/C (second compound 0.00316 µM, first compound 0.000316 µM): 79.4%; viability, T/C (second compound 0.00316 µM, first compound 0.001 µM): 78.4%; viability, T/C (second compound 0.00316 µM, first compound 0.00316 µM): 74.4%; viability, T/C (second compound 0.00316 µM, first compound 0.01 µM): 73.2%; viability, T/C (second compound 0.00316 µM, first compound 0.0316 µM): 142%; viability, T/C (second compound 0.00316 µM, first compound 0.1 µM): 31.9%; viability, T/C (second compound 0.01 µM, first compound 0.000316 µM): 124%; viability, T/C (second compound 0.01 µM, first compound 0.001 µM): 74.5%; viability, T/C (second compound 0.01 µM, first compound 0.00316 µM): 107%; viability, T/C (second compound 0.01 µM, first compound 0.01 µM): 56.3%; viability, T/C (second compound 0.01 µM, first compound 0.0316 µM): 58.8%; viability, T/C (second compound 0.01 µM, first compound 0.1 µM): 48.4%; viability, T/C (second compound 0.0316 µM, first compound 0.000316 µM): 73.5%; viability, T/C (second compound 0.0316 µM, first compound 0.001 µM): 80%; viability, T/C (second compound 0.0316 µM, first compound 0.00316 µM): 84.3%; viability, T/C (second compound 0.0316 µM, first compound 0.01 µM): 62.5%; viability, T/C (second compound 0.0316 µM, first compound 0.0316 µM): 53.4%; viability, T/C (second compound 0.0316 µM, first compound 0.1 µM): 31.4%; viability, T/C (second compound 0.1 µM, first compound 0.000316 µM): 85.1%; viability, T/C (second compound 0.1 µM, first compound 0.001 µM): 86%; viability, T/C (second compound 0.1 µM, first compound 0.00316 µM): 60.1%; viability, T/C (second compound 0.1 µM, first compound 0.01 µM): 105%; viability, T/C (second compound 0.1 µM, first compound 0.0316 µM): 46.8%; viability, T/C (second compound 0.1 µM, first compound 0.1 µM): 37%; viability, T/C (second compound 0.316 µM, first compound 0.000316 µM): 51.7%; viability, T/C (second compound 0.316 µM, first compound 0.001 µM): 52.2%; viability, T/C (second compound 0.316 µM, first compound 0.00316 µM): 69.7%; viability, T/C (second compound 0.316 µM, first compound 0.01 µM): 52.4%; viability, T/C (second compound 0.316 µM, first compound 0.0316 µM): 38.3%; viability, T/C (second compound 0.316 µM, first compound 0.1 µM): 23.3%; viability, T/C (second compound 1 µM, first compound 0.000316 µM): 68.8%; viability, T/C (second compound 1 µM, first compound 0.001 µM): 68.7%; viability, T/C (second compound 1 µM, first compound 0.00316 µM): 53.5%; viability, T/C (second compound 1 µM, first compound 0.01 µM): 55.6%; viability, T/C (second compound 1 µM, first compound 0.0316 µM): 29.7%; viability, T/C (second compound 1 µM, first compound 0.1 µM): 27.2%

— PubChem BioAssay AID1963969 (Molecular Pharmacology Branch, DTP, NCI, 2024)
